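Dose response: 5 concentrations. Exposure: 48 h. Format: 96-well plates. Endpoint: linear interpolation; highest concentration if not reached. GI50: concentration for 50% inhibition of growth. TGI: total growth inhibition.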
How the values were obtained:
Experiment in all cases: NCI-60 cell line screen, 48 h
SK-MEL-5 melanoma = tested on: SK-MEL-5 melanoma
SR leukemia = tested on: SR leukemia
SNB-75 CNS = tested on: SNB-75 CNS
SW-620 colon = tested on: SW-620 colon
SK-OV-3 ovarian = tested on: SK-OV-3 ovarian
PC-3 prostate = tested on: PC-3 prostate
HCT-116 colon = tested on: HCT-116 colon
HS 578T breast = tested on: HS 578T breast
LOX IMVI melanoma = tested on: LOX IMVI melanoma
OVCAR-8 ovarian = tested on: OVCAR-8 ovarian

SMILES	GI50 (SK-MEL-5 melanoma) [µM]	TGI (SK-MEL-5 melanoma) [µM]	GI50 (SR leukemia) [µM]	TGI (SR leukemia) [µM]	GI50 (SNB-75 CNS) [µM]	TGI (SNB-75 CNS) [µM]	GI50 (SW-620 colon) [µM]	TGI (SW-620 colon) [µM]	GI50 (SK-OV-3 ovarian) [µM]	TGI (SK-OV-3 ovarian) [µM]	GI50 (PC-3 prostate) [µM]	TGI (PC-3 prostate) [µM]	GI50 (HCT-116 colon) [µM]	TGI (HCT-116 colon) [µM]	GI50 (HS 578T breast) [µM]	TGI (HS 578T breast) [µM]	GI50 (LOX IMVI melanoma) [µM]	TGI (LOX IMVI melanoma) [µM]	GI50 (OVCAR-8 ovarian) [µM]	TGI (OVCAR-8 ovarian) [µM]
COc1cccc(-c2nc(-c3ccc(NC(=O)c4ccccc4)cc3)[nH]c2-c2ccnc(Br)c2)c1	1.79	3.34	1.94	> 100	0.815	> 100	3.77	> 100	3.05	8.24	3.25	> 100	3.29	> 100	0.339	1.75	1.13	2.69	4.02	> 100
CN(C1=NS(=O)(=O)N=C(N(C)c2ccccc2)O1)c1ccccc1	–	25.5	–	44.7	–	34.5	–	30.3	–	78.8	–	> 100	–	27.6	–	69.9	–	27.6	–	33.3
CCC1CCCCN1C(=S)N/N=C(\C)c1ccccn1 (configuration not stated)	0.194	1.59	0.0716	> 100	0.479	2.12	0.0463	2.76	0.304	2.46	0.0195	2.99	–	3.49	1.06	14.5	< 0.0246	3.86	< 0.0255	2.06
CCn1cc(C(=O)N/N=C/c2cccc(F)c2)c(=O)c2cc(F)c(N3CCNC(C)C3)c(F)c21 (configuration not stated)	1.75	3.19	1.33	3.14	1.52	2.87	1.68	3.17	1.78	3.28	1.62	3.09	1.75	3.47	4.4	25.5	1.71	3.21	1.76	3.32
COc1cc(C)[nH]c(=O)c1CN1CCc2c(Cl)cc([C@H](OC)C3COC3)c(Cl)c2C1=O	> 100	> 100	> 100	> 100	> 100	> 100	> 100	> 100	> 100	> 100	> 100	> 100	> 100	> 100	> 100	> 100	> 100	> 100	> 100	> 100
C=C1SC(=Nc2ccccc2Cl)N(C(=O)c2sc3ccccc3c2Cl)C1(C)C	6.65	25.2	7.1	> 39.6	6.41	97.4	4.68	> 100	7.94	80.2	4.68	> 100	8.01	> 44.5	5.66	57.8	9.62	> 100	5.08	> 100
O=C1c2cccc3cc([N+](=O)[O-])cc(c23)C(=O)N1CCN1CCCC1	0.293	0.943	0.0523	–	0.388	2.27	0.389	5.19	0.252	1.11	1.58	12.5	0.441	> 100	1.08	5.36	0.297	3.27	0.566	4.38
Cc1ccc(C(=O)CCC2C(=O)CC(C)(C)CC2=O)cc1	–	> 100	–	65.5	–	> 100	–	> 100	–	> 100	–	> 100	–	> 100	–	> 100	–	> 100	–	> 100
COc1ccc(-c2nc(N)c3ncn(C4OC(CO)C(O)C4O)c3n2)cc1 (configuration not stated)	–	> 100	–	> 100	–	> 100	–	> 100	–	> 100	–	> 100	–	> 100	–	> 100	–	> 100	–	> 100
CN(C)Cc1cccc(CN(C)C)[c]1[Sn]([Br])([c]1ccccc1)[c]1ccccc1	11	24.7	2.36	12	21.7	66.2	13.5	29.7	14.3	30.6	17.1	96.9	4.31	17.3	19.8	47	6.25	20.3	12.4	26.2
O=C(NC1CCN(Cc2ccccc2)CC1)c1cc(C(=O)NC2CCN(Cc3ccccc3)CC2)cc(C(=O)NC2CCN(Cc3ccccc3)CC2)c1	7.9	16.9	8.74	26.2	1.48	7.42	3.86	13	8.27	16.1	7.73	19.5	3.51	14	7.26	16.9	1.74	6.94	12.7	43.4
CN(C)c1ccc2cc(-c3cc4c(oc3=O)-c3ccccc3OC4O)c(=O)oc2c1 (configuration not stated)	0.752	4.67	3.19	9.96	5.96	24	15.6	> 25	5.96	19.8	3.85	15.1	1.44	> 25	7.14	19.6	3.52	7.3	3.2	15.7
N#Cc1nn(C2OC(COC(=O)c3ccccc3)C(OC(=O)c3ccccc3)C2OC(=O)c2ccccc2)c2nc[nH]c(=O)c12 (configuration not stated)	–	65.6	–	94.4	–	> 100	–	> 100	–	> 100	–	> 100	–	> 100	–	> 100	–	–	–	> 100

Reference: PubChem BioAssay (NCI)
